Residues, ends and D or L forms follow the SMILES beside them. *: point of attachment. X1 = OC[C@H]1O[C@@H](O[C@H]2[C@H](O)[C@@H](O)[C@H](*)O[C@@H]2CO)[C@H](O)[C@@H](O)[C@H]1O
Columns and labels:
[1] = tested on: cancer-induced bone loss; assay: Radiographic analysis of femur bone integrity (bone score); assay type: in vivo, mouse
Description: Radiographic images of mice’s right femurs with established (CIBP) or sham were captured using a Faxitron machine. Bone loss was rated and evaluated using a bone score scale by a blinded observer where 0 = normal healthy bone; 1 = 1–3 lesions; 2 = 4 to 6 lesions; 3 = uni-cortical bone fractures; and 4 = bicortical bone fractures.
A digital Faxitron machine (Ultrafocus; Faxitron Bioptics, Tucson, AZ) was used to image the femurs of all mice (all groups in chronic studies) on days 0 (baseline), 7, 10, and 14 post-surgery to determine an average bone score and to exclude the data for any mice with full cortical fracture before day 14. Two blinded observers evaluated the images using a 5-point bone rating scale. Mice were anesthetized with 80 mg/kg ketamine to 12 mg/kg xylazine (in a 10 mL/kg volume) on day 0 before the surgery, D7, D10, and D14, and radiographs were acquired. The bone scoring scale was as follows: 0 = normal bone, 1 = 1–3 lesions with no fracture, 2 = 4+ lesions with no fracture, 3 = uni-cortical, full thickness fracture, and 4 = bicortical, full thickness fracture. Animals with bicortical, full fractures were euthanized as our IACUC protocol measures dictated.

[2] = in vivo; conditions: male, Sprague Dawley, rat, serum, iv, 10 mg/kg
Description: To directly compare the in vivo lifetime and the ability of PNA6 to cross the blood–brain barrier (BBB), we devised a methodology that combines simultaneous blood sampling with microdialysis. PNA6 was administered via a single tail vein injection at a dosage of 10 mg/kg. Blood samples were collected at specific time intervals relative to the injection, including t = −10, 1, 5, 10, 20, 30, 40, 50, 60, 70, 80, and 90 min (with t = 0 corresponding to the moment of injection) as shown in Figure 4. The determination of serum and cerebrospinal fluid (CSF) concentrations of PNA6 involved the utilization of a calibration curve, which accounted for factors such as dilution and probe recovery specific to each experimental condition.
Animals for Dialysis: Male Sprague Dawley rats (275–325 g) were used for dialysis experiments in vivo.
The compounds were injected intravenously at 10 mg/kg via a single tail vein injection. Blood draws were taken at t = −10, 1, 5, 10, 20, 30, 40, 50, 60, 70, 80, and 90 min (where t = 0 corresponds to injection). Microdialysis fractions were time-locked with blood draws at 10 min increments such that blood draws correlated with the median time of the microdialysis fraction. For microdialysis, a dual syringe pump (PHD 2000, Harvard Apparatus, Holliston, MA, USA) was set to a flow rate of 0.5 mL/minute. […]

[3] = tested on: naïve mice; conditions: 1 mg/kg i.p., 30, 60, 90 and 120 min after treatment, 10 rpm, cut-off 180 s, vs vehicle
Description: The rotarod test is widely used to evaluate the motor coordination of rodents, and we used it to determine the motor effect of PNA6 to prevent interpretation of behavior as a false positive. Four days before testing, naïve mice were trained to acclimate to the rotating rod (LE8505 Rota-Rod, Panlab Harvard Apparatus, Spain) at a constant speed of 10 rpm. A maximal cut-off time of 180 s was used to prevent exhaustion. On the day of testing, mice were baselined and re-evaluated at 30, 60, 90, and 120 min after treatment.

[4] = no reference given, cited from earlier work
Description: Our team has taken a novel approach to treating CIPN by taking advantage of our extensive experience with the G-protein linked Mas receptor and its agonist Ang-(1-7) to develop a platform of glycosylated Ang-(1-7) Mas receptor agonists including PNA5 and PNA6 that have outstanding brain penetration, enhanced bioavailability, decreased brain and peripheral inflammation, improved cerebral blood flow, and restored cognitive function in our preclinical vascular dementia and TBI animal models. Activation of Mas decreases ROS and brain inflammation, increases cerebral circulation, increases inductio ...

[5] = target: Mas receptor (Homo sapiens) (UniProt P04201); conditions: cited from earlier work
[6] = tested on: Mas receptor (MasR1); conditions: cited from earlier work
Description: The renin-angiotensin system (RAS) is a crucial player in regulating blood pressure and fluid homeostasis. The octapeptide, Angiotensin II, is the first significant end product. Angiotensin II binds strongly to G-coupled protein receptors (GPCRs), Angiotensin receptor type 1 (AT1), to produce vasoconstriction, sodium-water retention, inflammation, and fibrosis; and it binds weakly to Angiotensin II receptor type II (AT2), which produces vasodilation and angiogenesis. Angiotensin II is cleaved by Angiotensin-converting enzyme 2 (ACE2) to yield the heptapeptide, Ang-(1-7), which ha ...

Sequence of Angiotensin-(1-7) (P01019 whole entry, looked up): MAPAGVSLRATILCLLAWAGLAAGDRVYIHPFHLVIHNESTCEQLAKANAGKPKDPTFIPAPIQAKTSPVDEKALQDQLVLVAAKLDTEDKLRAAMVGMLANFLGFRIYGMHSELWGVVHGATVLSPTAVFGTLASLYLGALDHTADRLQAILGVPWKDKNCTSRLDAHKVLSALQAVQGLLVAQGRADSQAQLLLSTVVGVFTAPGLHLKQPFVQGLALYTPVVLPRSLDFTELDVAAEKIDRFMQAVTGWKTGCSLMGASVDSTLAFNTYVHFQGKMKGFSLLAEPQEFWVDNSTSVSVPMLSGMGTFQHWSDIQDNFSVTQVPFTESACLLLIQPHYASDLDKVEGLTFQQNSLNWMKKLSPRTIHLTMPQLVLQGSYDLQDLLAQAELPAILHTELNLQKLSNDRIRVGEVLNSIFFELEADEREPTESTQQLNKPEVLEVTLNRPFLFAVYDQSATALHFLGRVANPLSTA
Sequence of Mas receptor (Homo sapiens) (P04201 whole entry): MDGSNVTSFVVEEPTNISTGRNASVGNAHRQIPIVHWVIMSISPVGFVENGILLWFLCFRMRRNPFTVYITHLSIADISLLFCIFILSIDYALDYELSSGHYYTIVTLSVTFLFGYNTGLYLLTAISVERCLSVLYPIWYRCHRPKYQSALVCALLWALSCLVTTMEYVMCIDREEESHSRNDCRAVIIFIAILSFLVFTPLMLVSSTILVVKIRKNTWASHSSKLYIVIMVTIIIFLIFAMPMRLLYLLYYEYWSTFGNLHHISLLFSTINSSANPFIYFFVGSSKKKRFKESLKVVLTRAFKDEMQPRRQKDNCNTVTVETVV

CC[C@H](C)[C@H](NC(=O)[C@H](Cc1ccc(O)cc1)NC(=O)[C@@H](NC(=O)[C@H](CCCNC(=N)N)NC(=O)[C@@H](N)CC(=O)O)C(C)C)C(=O)N[C@@H](Cc1c[nH]cn1)C(=O)N[C@@H](CO[C@@H]1O[C@H](CO)[C@@H](O[C@@H]2O[C@H](CO)[C@H](O)[C@H](O)[C@H]2O)[C@H](O)[C@H]1O)C(N)=O [PNA6, Asp-Arg-Val-Tyr-Ile-His-Ser-(O-β-Lact)-amide] (H-DRVYIHS(X1)-NH2)
cancer-induced bone loss vs vehicle ([1]; cancer-bearing mice, chronic treatment, radiographs day 14, n = 10–12): did not exacerbate cancer-induced bone loss degradation | bone remodeling in sham animals ([1]; sustained saline or PNA6, day 14): had no change in bone remodeling | Tmax [2]: 1 min | half-life [2]: 22.1 min | time spent on the rotating rod [3]: neither increased nor decreased the time | penetration into the CNS ([4]; 'has been shown'): good penetration into the CNS

Angiotensin-(1-7) (from UniProt P01019)
Kd [5]: 0.83 nM

DRVYIHP [Ang-(1-7), Angiotensin-(1-7)]
selectivity for MasR1 over AT1 receptor ([6]; greater selectivity over AT1): 60 fold | selectivity for MasR1 over AT2 receptor ([6]; greater selectivity over AT2): 100 fold | half-life in vivo ([4]; degraded rapidly by enzymes): short half-life in vivo

Source: article PMC10573977, “PNA6, a Lactosyl Analogue of Angiotensin-(1-7), Reverses Pain Induced in Murine Models of Inflammation, Chemotherapy-Induced Peripheral Neuropathy, and Metastatic Bone Disease” (International Journal of Molecular Sciences, 2023)
